ChEMBL document CHEMBL1817540, “Design and discovery of a selective small molecule κ opioid antagonist (2-methyl-N-((2'-(pyrrolidin-1-ylsulfonyl)biphenyl-4-yl)methyl)propan-1-amine, PF-4455242)” (J Med Chem, 2011)
≈ marks a conversion by molar mass, not a printed value.

Experiments:
[1] = Solubility of compound at pH 5.5; type: physicochemical; details: buffer
[2] = Solubility of compound at pH 6.6; type: physicochemical; details: buffer
[3] = Permeability of the compound by PAMPA; type: ADME; details: read-out: permeability
[4] = Permeability across dog RRCK cells; type: ADME, cell-based, Canis lupus familiaris, MDCKII-LE; details: MDCK, read-out: permeability
[5] = Penetration ratio, ratio of fAUC (0 to 4 hrs) in Sprague-Dawley rat brain to fAUC (0 to 4 hrs) in Sprague-Dawley rat plasma at […], sc; type: ADME, organism-based; parameters: dose 3.2 mg/kg, route subcutaneous
[6] = Penetration ratio, ratio of AUC (0 to 4 hrs) in Sprague-Dawley rat CSF to AUC (0 to 4 hrs) in Sprague-Dawley rat unbound plasma at […], sc; type: ADME, organism-based; parameters: dose 3.2 mg/kg, route subcutaneous; details: read-out: Ratio AUC

CC(C)CNCc1ccc(-c2ccccc2S(=O)(=O)N2CCCC2)cc1 [PF-04455242]
solubility [1]: > 8530 µg/mL | solubility [2]: 110 µg/mL (≈ 295 µM) | Papp [3]: 19 ×10⁻⁶ cm/s | Papp [4]: 19 ×10⁻⁶ cm/s | Kp uu [5]: 1 | Kp uu [6]: 1.2
